ChEMBL document CHEMBL6071176, “Development of Phloroglucinol-Linked Tris-Quaternary Ammonium Salt Antimicrobial Peptide Mimics with Low Cytotoxicity and Broad-Spectrum Antibacterial Activity” (J Med Chem, 2024)
Converted amounts (≈) assume the structure as drawn.

Experiments:
Enterococcus faecalis = test: Antimicrobial activity against Enterococcus faecalis assessed as inhibition of growth incubated for 18 hrs by CLSI guidelines based assay; format: functional
Escherichia coli = test: Antimicrobial activity against Escherichia coli assessed as inhibition of growth incubated for 18 hrs by CLSI guidelines based assay; format: functional
Staphylococcus aureus = test: Antimicrobial activity against Staphylococcus aureus assessed as inhibition of growth incubated for 18 hrs by CLSI guidelines based assay; format: functional
[1] = system: Stenotrophomonas maltophilia; test: Antimicrobial activity against Stenotrophomonas maltophilia assessed as inhibition of growth incubated for 18 hrs by CLSI guidelines based assay; format: functional
[2] = Selectivity index, ratio of HC50 for sheep red blood cells to MIC for Staphylococcus aureus; format: toxicity, cell-based, RBC; conditions: read-out: Selectivity Index
[3] = Hemolytic activity in sheep red blood cells measured after 1 hr incubation; format: toxicity, cell-based, Ovis aries, Erythrocyte
[4] = Cytotoxicity against human Gastric mucosal cells measured after 24 hrs by CCK-8 assay; format: toxicity, cell-based, Gastric mucosal cell

SMILES	MIC (Enterococcus faecalis) [µg/mL]	MIC (Escherichia coli) [µg/mL]	MIC (Staphylococcus aureus) [µg/mL]	MIC [1] [µg/mL]	selectivity ratio [2]	HC50 at 1 h [3] [µg/mL]	CC50 at 24 h [4] [µg/mL]
CCCC[N+](C)(C)CCCCCOc1cc(OCCCCC[N+](C)(C)CCCC)cc(OCCCCC[N+](C)(C)CCCC)c1.[Br-].[Br-].[Br-]	128	32	64	128	> 20	> 1280	–
CS(=O)(=O)c1ccc([C@@H](O)[C@@H](CF)NC(=O)C(Cl)Cl)cc1 [FLORFENICOL]	–	–	–	–	–	–	121 (≈ 339 µM)
CCCCCCCCCCCC[N+](C)(C)CCOc1ccccc1 [DOMIPHEN]	–	–	–	–	–	–	74.5
CCCCCCCCCCCC[N+](C)(C)CCCOc1cc(OCCC[N+](C)(C)CCCCCCCCCCCC)cc(OCCC[N+](C)(C)CCCCCCCCCCCC)c1.[Br-].[Br-].[Br-]	4	32	8	32	1.25	10	–
C[N+](C)(CCCCOc1cc(OCCCC[N+](C)(C)CCCc2ccccc2)cc(OCCCC[N+](C)(C)CCCc2ccccc2)c1)CCCc1ccccc1.[Br-].[Br-].[Br-]	16	> 128	8	> 128	> 160	> 1280	–
C[N+](C)(CCCCCOc1ccccc1)CCCOc1cc(OCCC[N+](C)(C)CCCCCOc2ccccc2)cc(OCCC[N+](C)(C)CCCCCOc2ccccc2)c1.[Br-].[Br-].[Br-]	8	32	4	32	> 320	> 1280	–
C[N+](C)(CCCCOc1ccccc1)CCCOc1cc(OCCC[N+](C)(C)CCCCOc2ccccc2)cc(OCCC[N+](C)(C)CCCCOc2ccccc2)c1.[Br-].[Br-].[Br-]	64	128	32	128	> 40	> 1280	–
CCCCCC[N+](C)(C)CCCCOc1cc(OCCCC[N+](C)(C)CCCCCC)cc(OCCCC[N+](C)(C)CCCCCC)c1.[Br-].[Br-].[Br-]	8	128	32	128	> 40	> 1280	–
CCCCCCCCCCCC[N+](C)(C)CCCCOc1cc(OCCCC[N+](C)(C)CCCCCCCCCCCC)cc(OCCCC[N+](C)(C)CCCCCCCCCCCC)c1.[Br-].[Br-].[Br-]	4	8	8	32	1.38	11	–
CCCC[N+](C)(C)CCCCOc1cc(OCCCC[N+](C)(C)CCCC)cc(OCCCC[N+](C)(C)CCCC)c1.[Br-].[Br-].[Br-]	128	128	128	128	> 10	> 1280	–
C[C@@H](O)[C@H]1C(=O)N2C(C(=O)O)=C(S[C@@H]3CN[C@H](C(=O)N(C)C)C3)[C@H](C)[C@H]12 [MEROPENEM]	2 (≈ 5.22 µM)	1 (≈ 2.61 µM)	0.5 (≈ 1.3 µM)	1 (≈ 2.61 µM)	2440	1220	–
C=C[C@]1(C)C[C@@H](OC(=O)CSC(C)(C)CNC(=O)[C@H](N)C(C)C)[C@]2(C)[C@H](C)CC[C@]3(CCC(=O)[C@H]32)[C@@H](C)[C@@H]1O [VALNEMULIN]	–	–	–	–	–	–	45.7 (≈ 80.9 µM)
C[N+](C)(CCCCc1ccccc1)CCCOc1cc(OCCC[N+](C)(C)CCCCc2ccccc2)cc(OCCC[N+](C)(C)CCCCc2ccccc2)c1.[Br-].[Br-].[Br-]	16	128	8	128	> 160	> 1280	–
C[N+](C)(CCCCOc1ccccc1)CCCCOc1cc(OCCCC[N+](C)(C)CCCCOc2ccccc2)cc(OCCCC[N+](C)(C)CCCCOc2ccccc2)c1.[Br-].[Br-].[Br-]	4	64	2	32	> 640	> 1280	–
C[N+](C)(CCCOc1ccccc1)CCCOc1cc(OCCC[N+](C)(C)CCCOc2ccccc2)cc(OCCC[N+](C)(C)CCCOc2ccccc2)c1.[Br-].[Br-].[Br-]	64	> 128	32	> 128	> 40	> 1280	–
C[N+](C)(CCCOc1cc(OCCC[N+](C)(C)CCCc2ccccc2)cc(OCCC[N+](C)(C)CCCc2ccccc2)c1)CCCc1ccccc1.[Br-].[Br-].[Br-]	32	> 128	32	> 128	> 40	> 1280	–
C[N+](C)(CCCCOc1cc(OCCCC[N+](C)(C)CCCCc2ccccc2)cc(OCCCC[N+](C)(C)CCCCc2ccccc2)c1)CCCCc1ccccc1.[Br-].[Br-].[Br-]	4	64	2	32	> 640	> 1280	–

Now from value to molecule, other results behind:

MIC (Enterococcus faecalis) [µg/mL]	MIC (Escherichia coli) [µg/mL]	MIC (Staphylococcus aureus) [µg/mL]	MIC [1] [µg/mL]	SMILES	selectivity ratio [2]	HC50 at 1 h [3] [µg/mL]	CC50 at 24 h [4] [µg/mL]
2	> 128	4	64	C[N+](C)(CCCCOc1cc(OCCCC[N+](C)(C)CCCOc2ccccc2)cc(OCCCC[N+](C)(C)CCCOc2ccccc2)c1)CCCOc1ccccc1.[Br-].[Br-].[Br-]	> 320	> 1280	–
2	4	4	4	CCCCCCCCCC[N+](C)(C)CCCCCOc1cc(OCCCCC[N+](C)(C)CCCCCCCCCC)cc(OCCCCC[N+](C)(C)CCCCCCCCCC)c1.[Br-].[Br-].[Br-]	4	16	–
2	64	16	64	CCCCCCCCCCCC[N+](C)(C)CCCCCOc1cc(OCCCCC[N+](C)(C)CCCCCCCCCCCC)cc(OCCCCC[N+](C)(C)CCCCCCCCCCCC)c1.[Br-].[Br-].[Br-]	0.75	12	–
2	16	1	16	C[N+](C)(CCCCCOc1ccccc1)CCCCOc1cc(OCCCC[N+](C)(C)CCCCCOc2ccccc2)cc(OCCCC[N+](C)(C)CCCCCOc2ccccc2)c1.[Br-].[Br-].[Br-]	> 1280	> 1280	–
1	2	1	1	CCCCCCCC[N+](C)(C)CCCCOc1cccc(OCCCC[N+](C)(C)CCCCCCCC)c1OCCCC[N+](C)(C)CCCCCCCC.[Br-].[Br-].[Br-]	847	847	–
1	8	1	16	C[N+](C)(CCCCCOc1cc(OCCCCC[N+](C)(C)CCCc2ccccc2)cc(OCCCCC[N+](C)(C)CCCc2ccccc2)c1)CCCc1ccccc1.[Br-].[Br-].[Br-]	> 1280	> 1280	–
2	4	0.5	2	CCCCCCCC[N+](C)(C)CCCCCOc1cc(OCCCCC[N+](C)(C)CCCCCCCC)cc(OCCCCC[N+](C)(C)CCCCCCCC)c1.[Br-].[Br-].[Br-]	1420	711	< 30
0.5	2	0.5	1	CCCCCCCC[N+](C)(C)CCCCOc1ccc(OCCCC[N+](C)(C)CCCCCCCC)c(OCCCC[N+](C)(C)CCCCCCCC)c1.[Br-].[Br-].[Br-]	> 2560	> 1280	–
1	4	1	4	CCCCCCCCCC[N+](C)(C)CCCOc1cc(OCCC[N+](C)(C)CCCCCCCCCC)cc(OCCC[N+](C)(C)CCCCCCCCCC)c1.[Br-].[Br-].[Br-]	54	54	–
1	2	1	2	C[N+](C)(CCCCCOc1cc(OCCCCC[N+](C)(C)CCCOc2ccccc2)cc(OCCCCC[N+](C)(C)CCCOc2ccccc2)c1)CCCOc1ccccc1.[Br-].[Br-].[Br-]	> 1280	> 1280	< 30
2	1	1	2	C[N+](C)(CCCCCOc1ccccc1)CCCCCOc1cc(OCCCCC[N+](C)(C)CCCCCOc2ccccc2)cc(OCCCCC[N+](C)(C)CCCCCOc2ccccc2)c1.[Br-].[Br-].[Br-]	> 1280	> 1280	< 30
2	8	1	4	CCCCCC[N+](C)(C)CCCCCOc1cc(OCCCCC[N+](C)(C)CCCCCC)cc(OCCCCC[N+](C)(C)CCCCCC)c1.[Br-].[Br-].[Br-]	> 1280	> 1280	< 30
2	2	1	2	C[N+](C)(CCCCCOc1cc(OCCCCC[N+](C)(C)CCCCc2ccccc2)cc(OCCCCC[N+](C)(C)CCCCc2ccccc2)c1)CCCCc1ccccc1.[Br-].[Br-].[Br-]	> 1280	> 1280	< 30
1	4	2	4	CCCCCCCC[N+](C)(C)CCCOc1cc(OCCC[N+](C)(C)CCCCCCCC)cc(OCCC[N+](C)(C)CCCCCCCC)c1.[Br-].[Br-].[Br-]	> 640	> 1280	< 30
0.5	4	4	4	CCCCCCCCCC[N+](C)(C)CCCCOc1cc(OCCCC[N+](C)(C)CCCCCCCCCC)cc(OCCCC[N+](C)(C)CCCCCCCCCC)c1.[Br-].[Br-].[Br-]	8.5	34	–
